The values that follow come from US9079922B2, “2-oxo-oxazolidin-3,5-diyl antibiotic derivatives” (priority 2011, dated 2015).

Each structure is given as a SMILES string. Converted amounts (≈) assume the structure as drawn.

As usually defined, the MIC is the lowest concentration that inhibits growth of the organism.

Test [1] deals with Acinetobacter baumanii T6474. As to the kind of experiment: Bacterial growth minimal inhibitory concentration (microdilution, cation-adjusted Mueller-Hinton Broth). Format: cell-based. Conditions: Acinetobacter baumannii, multiply-resistant strain, in particular quinolone resistant. How it is done:
(§1) Bacterial Growth Minimal Inhibitory Concentrations:
(§2) Minimal inhibitory concentrations (MICs; mg/l) were determined in cation-adjusted Mueller-Hinton Broth by a microdilution method following the description given in “Methods for Dilution Antimicrobial Susceptibility Tests for Bacteria that Grow Aerobically”, Approved standard, 7th ed., Clinical and Laboratory Standards Institute (CLSI) Document M7-A7, Wayne, Pa., USA, 2006.
(§3) All Example compounds were tested against several Gram positive and Gram negative bacteria. Staphylococcus aureus A798 and Acinetobacter baumanii T6474 are multiply-resistant strains, in particular quinolone resistant.
On the technique in general: Dilution methods test growth across graded concentrations, often in twofold steps.

Test [2] relates to Staphylococcus aureus A798. Described as above. Conditions: multiply-resistant strain, in particular quinolone resistant, read-out: MIC for S. aureus A798. The class given is cell-based. The procedure:
as §1, §2, §3

As for `COc1c(N2CC(NC[C@@H]3CN(c4ccc5c(n4)NC(=O)CO5)C(=O)O3)C2)ccc2c(=O)c(C(=O)O)cn(C3CC3)c12` [Example 8, 1-cyclopropyl-8-methoxy-4-oxo-7-(3-{[(R)-2-oxo-3-(3-oxo-3,4-dihydro-2H-pyrido[3,2-b][1,4]oxazin-6-yl)-oxazolidin-5-ylmethyl]-amino}-azetidin-1-yl)-1,4-dihydro-quinoline-3-carboxylic acid], the MIC was 0.25 µg/mL (≈ 0.434 µM) in test [1] and 0.063 µg/mL (≈ 0.109 µM) in test [2].
As for `CCn1cc(C(=O)O)c(=O)c2ccc(N3CC(NC[C@@H]4CN(c5ccc6c(n5)NC(=O)CO6)C(=O)O4)C3)nc21` [Example 9, 1-ethyl-4-oxo-7-(3-{[(R)-2-oxo-3-(3-oxo-3,4-dihydro-2H-pyrido[3,2-b][1,4]oxazin-6-yl)-oxazolidin-5-ylmethyl]-amino}-azetidin-1-yl)-1,4-dihydro-[1,8]naphthyridine-3-carboxylic acid], the minimum inhibitory concentration (MIC) in test [1] was found to be 0.06 µg/mL (≈ 0.112 µM); in test [2] it was 0.063 µg/mL (≈ 0.118 µM).
As to `O=C1CSc2ccc(N3C[C@@H](CNC4CN(c5ccc6c(=O)c(C(=O)O)cn(C7CC7)c6n5)C4)OC3=O)cc2N1` [Example 10, 1-cyclopropyl-4-oxo-7-(3-{[(R)-2-oxo-3-(3-oxo-3,4-dihydro-2H-benzo[1,4]thiazin-6-yl)-oxazolidin-5-ylmethyl]-amino}-azetidin-1-yl)-1,4-dihydro-[1,8]naphthyridine-3-carboxylic acid], the MIC in test [1] was determined as 0.25 µg/mL (≈ 0.444 µM); in test [2], 0.063 µg/mL (≈ 0.112 µM).
With `Cn1cc(C(=O)O)c(=O)c2ccc(N3CC(NC[C@@H]4CN(c5ccc6c(n5)NC(=O)CO6)C(=O)O4)C3)nc21` [Example 11, 1-methyl-4-oxo-7-(3-{[(R)-2-oxo-3-(3-oxo-3,4-dihydro-2H-pyrido[3,2-b][1,4]oxazin-6-yl)-oxazolidin-5-ylmethyl]-amino}-azetidin-1-yl)-1,4-dihydro-[1,8]naphthyridine-3-carboxylic acid], the MIC in test [1] and in test [2] was 0.063 µg/mL (≈ 0.121 µM) each time.
Regarding `Cn1cc(C(=O)O)c(=O)c2cc(F)c(N3CC(NC[C@@H]4CN(c5ccc6c(n5)NC(=O)CO6)C(=O)O4)C3)nc21` [Example 12, 6-fluoro-1-methyl-4-oxo-7-(3-{[(R)-2-oxo-3-(3-oxo-3,4-dihydro-2H-pyrido[3,2-b][1,4]oxazin-6-yl)-oxazolidin-5-ylmethyl]-amino}-azetidin-1-yl)-1,4-dihydro-[1,8]naphthyridine-3-carboxylic acid], the MIC in test [1] and in test [2] was at most 0.016 µg/mL each time.
As for `O=C1COc2ccc(N3C[C@@H](CNC4CN(c5nc6c(cc5F)c(=O)c(C(=O)O)cn6Cc5ccccc5)C4)OC3=O)nc2N1` [Example 13, 1-benzyl-6-fluoro-4-oxo-7-(3-{[(R)-2-oxo-3-(3-oxo-3,4-dihydro-2H-pyrido[3,2-b][1,4]oxazin-6-yl)-oxazolidin-5-ylmethyl]-amino}-azetidin-1-yl)-1,4-dihydro-[1,8]naphthyridine-3-carboxylic acid], the MIC in test [1] is 1 µg/mL (≈ 1.62 µM); in test [2], at most 0.016 µg/mL.
The corresponding values for `O=C1COc2ccc(N3C[C@@H](CNC4CN(c5ccc6c(=O)c(C(=O)O)cn(C7CC7)c6n5)C4)OC3=O)nc2N1` [Example 14, 1-cyclopropyl-4-oxo-7-(3-{[(R)-2-oxo-3-(3-oxo-3,4-dihydro-2H-pyrido[3,2-b][1,4]oxazin-6-yl)-oxazolidin-5-ylmethyl]-amino}-azetidin-1-yl)-1,4-dihydro-[1,8]naphthyridine-3-carboxylic acid] are 0.06 µg/mL (≈ 0.11 µM) and 0.031 µg/mL (≈ 0.0566 µM).
Take `O=C1COc2ccc(N3C[C@@H](CNC4CN(c5nc6c(cc5F)c(=O)c(C(=O)O)cn6CCO)C4)OC3=O)nc2N1` [Example 15, 6-fluoro-1-(2-hydroxy-ethyl)-4-oxo-7-(3-{[(R)-2-oxo-3-(3-oxo-3,4-dihydro-2H-pyrido[3,2-b][1,4]oxazin-6-yl)-oxazolidin-5-ylmethyl]-amino}-azetidin-1-yl)-1,4-dihydro-[1,8]naphthyridine-3-carboxylic acid]: the MIC in test [1] was 4 µg/mL (≈ 7.02 µM); in test [2], 0.25 µg/mL (≈ 0.439 µM).
Take `O=C1CSc2ccc(N3C[C@H](CN4CCN(c5nc6c(cc5F)c(=O)c(C(=O)O)cn6C5CC5)CC4)OC3=O)cc2N1` [Example 16, 1-cyclopropyl-6-fluoro-4-oxo-7-{4-[(S)-2-oxo-3-(3-oxo-3,4-dihydro-2H-benzo[1,4]thiazin-6-yl)-oxazolidin-5-ylmethyl]-piperazin-1-yl}-1,4-dihydro-[1,8]naphthyridine-3-carboxylic acid]: the MIC in test [1] is 0.125 µg/mL (≈ 0.21 µM); in test [2], at most 0.016 µg/mL.
On to `O=C1COc2ccc(N3C[C@@H](CNC4CCN(c5nc6c(cc5F)c(=O)c(C(=O)O)cn6C5CC5)CC4)OC3=O)nc2N1` [Example 17, 1-cyclopropyl-6-fluoro-4-oxo-7-(4-{[(R)-2-oxo-3-(3-oxo-3,4-dihydro-2H-pyrido[3,2-b][1,4]oxazin-6-yl)-oxazolidin-5-ylmethyl]-amino}-piperidin-1-yl)-1,4-dihydro-[1,8]naphthyridine-3-carboxylic acid], for which the MIC in test [1] and in test [2] was at most 0.016 µg/mL throughout.
Turning to `O=C1COc2ccc(N3C[C@@H](CN4CCN(c5nc6c(cc5F)c(=O)c(C(=O)O)cn6C5CC5)CC4)OC3=O)nc2N1` [Example 18, 1-cyclopropyl-6-fluoro-4-oxo-7-{4-[(R)-2-oxo-3-(3-oxo-3,4-dihydro-2H-pyrido[3,2-b][1,4]oxazin-6-yl)-oxazolidin-5-ylmethyl]-piperazin-1-yl}-1,4-dihydro-[1,8]naphthyridine-3-carboxylic acid], the MIC is 0.25 µg/mL (≈ 0.431 µM) in test [1] and 0.031 µg/mL (≈ 0.0535 µM) in test [2].
Regarding `O=C1COc2ccc(N3C[C@H](CN4CCN(c5nc6c(cc5F)c(=O)c(C(=O)O)cn6C5CC5)CC4)OC3=O)nc2N1` [Example 19, 1-cyclopropyl-6-fluoro-4-oxo-7-{4-[(S)-2-oxo-3-(3-oxo-3,4-dihydro-2H-pyrido[3,2-b][1,4]oxazin-6-yl)-oxazolidin-5-ylmethyl]-piperazin-1-yl}-1,4-dihydro-[1,8]naphthyridine-3-carboxylic acid], the MIC in test [1] was 0.063 µg/mL (≈ 0.109 µM); in test [2] it was at most 0.016 µg/mL.
Regarding `O=C1COc2ccc(N3C[C@H](CNC4CCN(c5nc6c(cc5F)c(=O)c(C(=O)O)cn6C5CC5)CC4)OC3=O)nc2N1` [Example 20, 1-cyclopropyl-6-fluoro-4-oxo-7-(4-{[(S)-2-oxo-3-(3-oxo-3,4-dihydro-2H-pyrido[3,2-b][1,4]oxazin-6-yl)-oxazolidin-5-ylmethyl]-amino}-piperidin-1-yl)-1,4-dihydro-[1,8]naphthyridine-3-carboxylic acid], the MIC in test [1] and in test [2] was at most 0.016 µg/mL in each case.
As to `O=C1COc2ccc(N3C[C@H](CNC[C@@H]4CCN(c5nc6c(cc5F)c(=O)c(C(=O)O)cn6C5CC5)C4)OC3=O)nc2N1` [Example 22, 1-cyclopropyl-6-fluoro-4-oxo-7-[(S)-3-({[(S)-2-oxo-3-(3-oxo-3,4-dihydro-2H-pyrido[3,2-b][1,4]oxazin-6-yl)-oxazolidin-5-ylmethyl]-amino}-methyl)-pyrrolidin-1-yl]-1,4-dihydro-[1,8]naphthyridine-3-carboxylic acid], the MIC in test [1] was found to be 0.031 µg/mL (≈ 0.0522 µM); in test [2], 0.125 µg/mL (≈ 0.211 µM).
For `O=C1COc2ccc(N3C[C@H](CNC4CCN(c5nc6c(cc5F)c(=O)c5c(O)nsc5n6C5CC5)CC4)OC3=O)nc2N1` [Example 23, 9-cyclopropyl-6-fluoro-3-hydroxy-7-(4-{[(S)-2-oxo-3-(3-oxo-3,4-dihydro-2H-pyrido[3,2-b][1,4]oxazin-6-yl)-oxazolidin-5-ylmethyl]-amino}-piperidin-1-yl)-9H-1-thia-2,8,9-triaza-cyclopenta[b]naphthalen-4-one], the MIC in test [1] and in test [2] was at most 0.016 µg/mL throughout.
As to `O=C1COc2ccc(N3C[C@H](CNC4CN(c5nc6c(cc5F)c(=O)c5c(O)nsc5n6C5CC5)C4)OC3=O)nc2N1` [Example 24, 9-cyclopropyl-6-fluoro-3-hydroxy-7-(3-{[(S)-2-oxo-3-(3-oxo-3,4-dihydro-2H-pyrido[3,2-b][1,4]oxazin-6-yl)-oxazolidin-5-ylmethyl]-amino}-azetidin-1-yl)-9H-1-thia-2,8,9-triaza-cyclopenta[b]naphthalen-4-one], the MIC in test [1] is 0.063 µg/mL (≈ 0.106 µM); in test [2] it was at most 0.016 µg/mL.
As to `O=C1COc2ccc(N3C[C@H](CN4CCN(c5nc6c(cc5F)c(=O)c5c(O)nsc5n6C5CC5)CC4)OC3=O)nc2N1` [Example 25, 9-cyclopropyl-6-fluoro-3-hydroxy-7-{4-[(S)-2-oxo-3-(3-oxo-3,4-dihydro-2H-pyrido[3,2-b][1,4]oxazin-6-yl)-oxazolidin-5-ylmethyl]-piperazin-1-yl}-9H-1-thia-2,8,9-triaza-cyclopenta[b]naphthalen-4-one], the MIC was 0.125 µg/mL (≈ 0.205 µM) in test [1] and at most 0.016 µg/mL in test [2].
